Results reported in the NIST ThermoML archive (doi:10.1016/j.tca.2014.05.028).

Test: xn = mol fraction of the nth substance listed
Settings: 101 kPa, Liquid; for viscosity: Falling or rolling sphere viscometry; for mass density: Vibrating tube method

CCCCC[N+]1(C)CCCC1.[Br-] [1-methyl-1-pentylpyrrolidinium bromide] + O
Settings	mass density [kg/m3]	viscosity [mPa·s]
298.15 K, x1 = 0.0313	1054.87	1.987
298.15 K, x1 = 0.0592	1089.64	3.402
298.15 K, x1 = 0.0944	1119.19	6.013
298.15 K, x1 = 0.1301	1139.59	10.08
298.15 K, x1 = 0.1566	1150.73	14.2
298.15 K, x1 = 0.1964	1163.63	22.59
298.15 K, x1 = 0.2468	1175.13	38.27
298.15 K, x1 = 0.3028	1184.58	66.43
298.15 K, x1 = 0.3503	1190.28	102.55
298.15 K, x1 = 0.4097	1195.59	175.43
298.15 K, x1 = 0.445	1198.37	241.18
298.15 K, x1 = 1	1188.96	–
303.15 K, x1 = 0.0313	1052.43	1.728
303.15 K, x1 = 0.0592	1086.59	2.903
303.15 K, x1 = 0.0944	1115.78	5.036
303.15 K, x1 = 0.1301	1136.1	8.404
303.15 K, x1 = 0.1566	1147.25	11.61
303.15 K, x1 = 0.1964	1160.15	18.05
303.15 K, x1 = 0.2468	1171.69	29.76
303.15 K, x1 = 0.3028	1181.21	50.36
303.15 K, x1 = 0.3503	1186.96	76.83
303.15 K, x1 = 0.4097	1192.35	128.64
303.15 K, x1 = 0.445	1195.15	173.72
303.15 K, x1 = 1	1185.14	–
308.15 K, x1 = 0.0313	1049.86	1.469
308.15 K, x1 = 0.0592	1083.44	2.433
308.15 K, x1 = 0.0944	1112.34	4.142
308.15 K, x1 = 0.1301	1132.57	6.871
308.15 K, x1 = 0.1566	1143.72	9.343
308.15 K, x1 = 0.1964	1156.64	14.22
308.15 K, x1 = 0.2468	1168.24	22.83
308.15 K, x1 = 0.3028	1177.83	37.83
308.15 K, x1 = 0.3503	1183.64	56.94
308.15 K, x1 = 0.4097	1189.09	93.53
308.15 K, x1 = 0.445	1191.92	124.68
308.15 K, x1 = 1	1181.35	–
313.15 K, x1 = 0.0313	1047.17	1.288
313.15 K, x1 = 0.0592	1080.23	2.104
313.15 K, x1 = 0.0944	1108.85	3.523
313.15 K, x1 = 0.1301	1129.01	5.794
313.15 K, x1 = 0.1566	1140.17	7.793
313.15 K, x1 = 0.1964	1153.12	11.62
313.15 K, x1 = 0.2468	1164.79	18.25
313.15 K, x1 = 0.3028	1174.44	29.54
313.15 K, x1 = 0.3503	1180.31	43.93
313.15 K, x1 = 0.4097	1185.82	70.78
313.15 K, x1 = 0.445	1188.67	94.43
313.15 K, x1 = 1	1177.58	–
318.15 K, x1 = 0.0313	1044.36	1.152
318.15 K, x1 = 0.0592	1076.94	1.849
318.15 K, x1 = 0.0944	1105.32	3.055
318.15 K, x1 = 0.1301	1125.43	4.98
318.15 K, x1 = 0.1566	1136.58	6.632
318.15 K, x1 = 0.1964	1149.57	9.734
318.15 K, x1 = 0.2468	1161.33	14.99
318.15 K, x1 = 0.3028	1171.04	23.75
318.15 K, x1 = 0.3503	1176.97	35.02
318.15 K, x1 = 0.4097	1182.56	55.19
318.15 K, x1 = 0.445	1185.43	73.04
318.15 K, x1 = 1	1173.84	–
323.15 K, x1 = 0.0313	1041.42	1.018
323.15 K, x1 = 0.0592	1073.59	1.61
323.15 K, x1 = 0.0944	1101.75	2.62
323.15 K, x1 = 0.1301	1121.81	4.239
323.15 K, x1 = 0.1566	1132.97	5.594
323.15 K, x1 = 0.1964	1146.01	8.098
323.15 K, x1 = 0.2468	1157.86	12.24
323.15 K, x1 = 0.3028	1167.63	19.02
323.15 K, x1 = 0.3503	1173.62	27.61
323.15 K, x1 = 0.4097	1179.3	43.02
323.15 K, x1 = 0.445	1182.19	56.06
323.15 K, x1 = 1	1170.12	–
328.15 K, x1 = 0.0313	1038.21	0.901
328.15 K, x1 = 0.0592	1070.18	1.406
328.15 K, x1 = 0.0944	1098.14	2.253
328.15 K, x1 = 0.1301	1118.16	3.594
328.15 K, x1 = 0.1566	1129.34	4.737
328.15 K, x1 = 0.1964	1142.42	6.779
328.15 K, x1 = 0.2468	1154.37	10.1
328.15 K, x1 = 0.3028	1164.2	15.38
328.15 K, x1 = 0.3503	1170.27	22.07
328.15 K, x1 = 0.4097	1176.04	33.82
328.15 K, x1 = 0.445	1178.95	43.84
328.15 K, x1 = 1	1166.42	–
333.15 K, x1 = 0.0313	1034.52	0.806
333.15 K, x1 = 0.0592	1066.7	1.238
333.15 K, x1 = 0.0944	1094.49	1.961
333.15 K, x1 = 0.1301	1114.49	3.084
333.15 K, x1 = 0.1566	1125.68	4.048
333.15 K, x1 = 0.1964	1138.81	5.734
333.15 K, x1 = 0.2468	1150.85	8.449
333.15 K, x1 = 0.3028	1160.77	12.68
333.15 K, x1 = 0.3503	1166.91	18.16
333.15 K, x1 = 0.4097	1172.78	27.16
333.15 K, x1 = 0.445	1175.7	35.05
333.15 K, x1 = 1	1162.75	–
338.15 K, x1 = 0.0313	1031.9	0.735
338.15 K, x1 = 0.0592	1063.16	1.117
338.15 K, x1 = 0.0944	1090.8	1.75
338.15 K, x1 = 0.1301	1110.78	2.707
338.15 K, x1 = 0.1566	1121.99	3.551
338.15 K, x1 = 0.1964	1135.18	4.983
338.15 K, x1 = 0.2468	1147.32	7.259
338.15 K, x1 = 0.3028	1157.32	10.76
338.15 K, x1 = 0.3503	1163.54	15.24
338.15 K, x1 = 0.4097	1169.46	22.53
338.15 K, x1 = 0.445	1172.45	28.48
338.15 K, x1 = 1	1159.1	–
343.15 K, x1 = 0.0313	1026.38	0.661
343.15 K, x1 = 0.0592	1059.56	0.991
343.15 K, x1 = 0.0944	1087.07	1.532
343.15 K, x1 = 0.1301	1107.04	2.328
343.15 K, x1 = 0.1566	1118.28	3.039
343.15 K, x1 = 0.1964	1131.53	4.253
343.15 K, x1 = 0.2468	1143.76	6.138
343.15 K, x1 = 0.3028	1153.87	9.006
343.15 K, x1 = 0.3503	1160.16	12.52
343.15 K, x1 = 0.4097	1166.21	18.43
343.15 K, x1 = 0.445	1169.19	22.9
343.15 K, x1 = 1	1155.48	–
